Test results published in patent publication US20080057003A1, “Powder inhaler formulations” (priority 2001, published 2008).

Assay: Triboelectrification in a cyclone separator (specific charge, mass transport, adhesion)
Type: physicochemical
Details: for specific charge: untreated micronized drug, stainless steel cyclone, FIG. 1 / FIG. 3
Source text: In the processing of micronized or microfine active substances for DPI, it is common to subject the powder to a sieving process in order to remove large agglomerates prior to mixing with the carrier particles used in the DPI formulation. […] The experimental method for electrostatic charge determinations that was applied is outlined in more detail below.
Electrostatic charge of powder samples was investigated using a cyclone apparatus linked to a Faraday well and force compensation load cell to measure charge and mass simultaneously. 1 g samples of powder were transported through the apparatus using dry compressed air (rh<10%) at 8 m s^−1 for triboelectrification against a stainless steel surface.
The charge Q (nC) and mass M (g) values were used to calculate the specific charge Q/M (nC g^−1) at the completion of each experimental run. The results are mean values with coefficient of variation values for 5 replicates. The mass of material entering the Faraday well was used to quantify the mass transport through the apparatus and this was used to assess the flow and adhesion characteristics of the powder. In addition, the amount of material adhered to the cyclone wall was estimated visually and rated on a scale from 0 (no adhesion) to 3 (extensive adhesion).
Approximately 10 g of drug powder samples were placed in a 60M (250 μm) sieve and agitated using a sieve shaker (Glen Creston, 47-300) with an oscillation amplitude regulator at setting 20 for 20 minutes. Sieved powder samples were stored in glass jars and then kept in a desiccator for a week prior to charge investigations in the cyclone.

[1] = sieved samples, tiotropium treated with sorbitan derivative at 600 mg l^−1, or untreated, cyclone

Compound	Mean charge (cv %) [1]	Mean mass transfer (cv %) [1]	specific charge (sieved)	specific charge (unsieved)
C[N+]1(C)[C@@H]2C[C@@H](OC(=O)C(O)(c3cccs3)c3cccs3)C[C@H]1[C@@H]1O[C@@H]12 [tiotropium, Tiotropium]	+201 (3.2) nC g^−1	2.5 (8.0) %	+201 nC g^−1	+52 nC g^−1
CC(Cc1ccc(O)cc1)NCC(O)c1cc(O)cc(O)c1 (stereo not drawn) [fenoterol, Fenoterol]			−92 nC g^−1	−40 nC g^−1
